In US20150258192A1, “COMPOSITIONS AND METHODS FOR PREVENTING OR TREATING CHRONIC LUNG ALLOGRAFT DYSFUNCTION (CLAD) AND IDIOPATHIC PULMONARY FIBROSIS (IPF)” (priority 2014, published 2015):
No end group written: not given here.

Experiments:
CK1γ2(h) = CK1γ2(h) (Homo sapiens, UniProt P78368); assay: Kinase Profiling Assay; format: biochemical; conditions: peptide 100 μM
Outline: (§1)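 Radiometric filter-binding format: cationic substrate takes up labeled phosphate from ATP unless the inhibitor peptide blocks the kinase. Substrate bound to an anionic filter, scintillation-counted, normalized to 100% activity control. Duplicates; part of a 266-kinase selectivity panel for MK2 peptides.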

c-RAF(h) = c-RAF(h) (Homo sapiens, UniProt P04049); assay: Kinase Profiling Assay; format: biochemical; conditions: peptide 100 μM
Outline: as §1

PAK6(h) = PAK6(h) (Homo sapiens, UniProt Q9NQU5); assay: Kinase Profiling Assay; format: biochemical; conditions: peptide 100 μM
Outline: as §1

FGFR2(N549H)(h) = FGFR2(N549H)(h) (Homo sapiens, UniProt P21802, N549H); assay: Kinase Profiling Assay; format: biochemical; conditions: peptide 100 μM
Outline: as §1

[1] = test system: bleomycin-induced lung fibrosis in C57BL/6 mice; assay: Bleomycin mouse model of pulmonary fibrosis (IPF prevention model); format: in vivo; conditions: for collagen levels in the lung (Masson's blue trichrome), dose-response: 25, 50 or 75 μg/kg daily IP, day 7-21; for collagen accumulation in the lungs (Masson's Trichrome staining) / development of fibrotic loci formation (H&E staining): daily day 7-21 post bleomycin; for total collagen deposition (from hydroxyproline) vs bleomycin control: post-inflammatory/pre-fibrotic stage
Procedure: A mouse model of pulmonary fibrosis was generated by administering 0.025 U of bleomycin/PBS intratracheally to C57BL/6 mice. […] At 21 day post bleomycin delivery (for prevention model) or 28 post bleomycin delivery (for treatment model), groups of mice were sacrificed with a sodium pentobarbital injection (120 mg/kg) and the chest cavity was opened. The right mainstem bronchus was ligated and the right lung was removed. The trachea was cannulated and the left lung was perfused with 4% formaldehyde at 21 cm H2O pressure. The tissue blocks then were embedded in paraffin, and […] sections were prepared for staining. Sections from each animal were stained with hematoxylin and eosin (H&E) to visualize cells or with Masson's Trichrome staining to highlight collagen deposition. […] Stained sections were mounted onto a labeled glass slide with organic mounting medium.
Briefly, fibrotic loci in the lungs of the mice were induced by delivering intratracheally about 0.025 U of bleomycin (dissolved in PBS) to C57BL/6 mice. […] Briefly, mice were sacrificed with a sodium pentobarbital injection (120 mg/kg) and the chest cavity was opened. The right mainstem bronchus was ligated and the right lung was removed. The trachea was cannulated and the left lung was perfused with 4% formaldehyde at 21 cm H2O pressure. The tissue blocks then were embedded in paraffin, and […] sections were prepared, and stained with hematoxylin and eosin (H&E; for pathological examination) or Masson's Trichrome (for collagen staining)
Next, total collagen levels in the lungs of the bleomycin-injured mice (FIG. 12) were analyzed quantitatively by computing a constant conversion factor (7.5) for collagen from hydroxyproline concentrations (Neuman R. and Logan M, J Biol Chem., 186(2):549-56, 1950, incorporated by reference).
Next, the effect of increasing doses of MK2 peptide inhibitors on collagen deposition was examined in vivo using the bleomycin mouse model of idiopathic pulmonary fibrosis (prevention model). Briefly, C57-BL/6 mice were subjected to bleomycin injury at day 0.

[2] = test system: phospho-Thr^334-MAPKAPK2 (activated form of MK2); assay: Anti-phospho-Thr334-MAPKAPK2 staining of lung sections, bleomycin treatment model; format: in vivo, mouse; conditions: day 14-28
Excerpt: C57-BL/6 mice were subjected to bleomycin injury at day 0. […] Original magnifications: 20×.
(§2) Briefly, C57-BL/6 mice were subjected to bleomycin injury at day 0. […] Formalin-fixed lung tissue sections were immunostained against phospho-Thr^334 MK2. Control staining was with biotinylated secondary IgG antibody. Streptavidin-conjugated horseradish peroxidase was used with 3,3′-diaminobenzidene as substrate and nuclei were counterstained with hematoxylin.

TNF-α = assay: Circulating inflammatory cytokines, bleomycin treatment model; format: in vivo, mouse; conditions: 24 hours after final administration
[3] = test system: alpha-smooth muscle actin (α-SMA); assay: α-SMA immunostaining of lung sections, bleomycin treatment model; format: in vivo, mouse; conditions: 50 μg/kg/day IP or nebulizer, day 14-28
Excerpt: as §2, with “C57-BL/6” for “Briefly, C57-BL/6”, “against α-SMA.” for “against phospho-Thr^334 MK2.”, “nuclei was” for “nuclei were”, “hematoxylin. Original magnifications: 20×” for “hematoxylin.”

[4] = test system: normal human fetal lung fibroblasts (IMR-90); assay: TGF-β-induced myofibroblast activation (α-SMA immunoblot); format: cell-based; conditions: pre-treated 1 h, TGF-β1 (2 ng/ml) 48 h
Excerpt: Cell lysates were immunoblotted against antibodies for α-SMA (a marker for myofibroblast activation) and GAPDH (loading control).

[5] = test system: human fetal lung fibroblasts (IMR-90); assay: TGF-β-mediated fibronectin expression; format: cell-based; conditions: pre-treated 1 h, TGF-β1 (2 ng/ml) 72 h, conditioned media
Procedure: Fibronection was measured as secreted fragments in the conditioned media. Equal amounts (14 μg) of total proteins from the conditioned media were loaded in each lane.

[6] = test system: primary lung fibroblasts from patients with IPF; assay: Matrigel invasion assay, human IPF fibroblasts; format: cell-based; conditions: MK2i treatment
Procedure: Fibroblasts are critical effector cells in mediating tissue remodeling. […] We have developed a novel model of progressive lung fibrosis based on a cancer metastasis model. […] We hypothesized that fibrotic fibroblasts acquire an invasive phenotype that is essential for progressive fibrogenesis and that CD44 has a critical role in regulating the process. We utilized an assay system in which fibroblasts are evaluated for their ability to spontaneously invade Matrigel, a composite matrix with basement membrane constituents. This assay has been used to analyze the metastatic potential of cancer cells (40).
We have hypothesized that the essential feature of IPF is the development of an invasive fibroblast phenotype that has developed a gene program that facilitates matrix invasion. To determine if the data obtained from the ASMA-HAS2 transgenic mouse model of severe, progressive and destructive fibrosis is relevant to human lung fibrosis, we isolated primary lung fibroblasts from patients with IPF and analyzed their invasive capacity. We found a striking increase in the invasive capacity of IPF fibroblasts compared to fibroblasts isolated from normal lung tissue (FIG. 34).

[7] = test system: fibroblasts from human idiopathic pulmonary fibrosis (IPF) lung; assay: HA production of fibroblasts; format: cell-based
CK1γ1(h) = CK1γ1(h) (Homo sapiens, UniProt Q9HCP0); assay: Kinase Profiling Assay; format: biochemical; conditions: peptide 100 μM
Outline: as §1

CLK2(h) = CLK2(h) (Homo sapiens, UniProt P49760); assay: Kinase Profiling Assay; format: biochemical; conditions: peptide 100 μM
Outline: as §1

Plk1(h) = Plk1(h) (Homo sapiens, UniProt P53350); assay: Kinase Profiling Assay; format: biochemical; conditions: peptide 100 μM
Outline: as §1

CK1γ1(h), sequence (Q9HCP0 whole entry): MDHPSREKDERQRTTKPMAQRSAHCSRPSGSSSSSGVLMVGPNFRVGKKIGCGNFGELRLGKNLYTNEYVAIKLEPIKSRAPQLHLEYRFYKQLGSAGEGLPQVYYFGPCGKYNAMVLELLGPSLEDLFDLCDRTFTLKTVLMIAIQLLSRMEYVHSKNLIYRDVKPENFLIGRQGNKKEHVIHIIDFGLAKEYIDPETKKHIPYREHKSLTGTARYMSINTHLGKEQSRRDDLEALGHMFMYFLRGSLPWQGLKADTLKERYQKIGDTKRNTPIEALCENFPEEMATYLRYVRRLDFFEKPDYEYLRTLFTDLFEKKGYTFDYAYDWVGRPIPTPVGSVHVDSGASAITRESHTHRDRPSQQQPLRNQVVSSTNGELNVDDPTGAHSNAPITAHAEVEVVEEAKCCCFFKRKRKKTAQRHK
PAK6(h), sequence (Q9NQU5 whole entry): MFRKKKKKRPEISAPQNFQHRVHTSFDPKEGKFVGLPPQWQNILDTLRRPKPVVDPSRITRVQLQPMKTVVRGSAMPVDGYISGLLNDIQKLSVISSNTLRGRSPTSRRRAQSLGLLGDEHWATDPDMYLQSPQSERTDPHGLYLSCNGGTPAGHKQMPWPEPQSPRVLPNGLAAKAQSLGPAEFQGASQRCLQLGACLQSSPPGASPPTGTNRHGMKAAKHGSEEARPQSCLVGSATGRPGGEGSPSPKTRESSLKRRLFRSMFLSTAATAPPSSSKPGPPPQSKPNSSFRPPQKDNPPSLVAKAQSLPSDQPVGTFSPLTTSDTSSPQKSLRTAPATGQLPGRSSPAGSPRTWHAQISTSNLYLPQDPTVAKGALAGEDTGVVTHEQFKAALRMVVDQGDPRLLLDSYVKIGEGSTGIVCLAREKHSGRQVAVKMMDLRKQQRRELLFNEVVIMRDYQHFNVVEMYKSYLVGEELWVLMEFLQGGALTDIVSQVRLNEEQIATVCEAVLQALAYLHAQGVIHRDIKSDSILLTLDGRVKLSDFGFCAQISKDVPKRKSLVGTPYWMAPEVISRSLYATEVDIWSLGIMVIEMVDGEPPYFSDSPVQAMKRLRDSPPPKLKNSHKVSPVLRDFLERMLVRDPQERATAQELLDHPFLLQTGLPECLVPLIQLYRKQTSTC
CLK2(h), sequence (P49760 whole entry): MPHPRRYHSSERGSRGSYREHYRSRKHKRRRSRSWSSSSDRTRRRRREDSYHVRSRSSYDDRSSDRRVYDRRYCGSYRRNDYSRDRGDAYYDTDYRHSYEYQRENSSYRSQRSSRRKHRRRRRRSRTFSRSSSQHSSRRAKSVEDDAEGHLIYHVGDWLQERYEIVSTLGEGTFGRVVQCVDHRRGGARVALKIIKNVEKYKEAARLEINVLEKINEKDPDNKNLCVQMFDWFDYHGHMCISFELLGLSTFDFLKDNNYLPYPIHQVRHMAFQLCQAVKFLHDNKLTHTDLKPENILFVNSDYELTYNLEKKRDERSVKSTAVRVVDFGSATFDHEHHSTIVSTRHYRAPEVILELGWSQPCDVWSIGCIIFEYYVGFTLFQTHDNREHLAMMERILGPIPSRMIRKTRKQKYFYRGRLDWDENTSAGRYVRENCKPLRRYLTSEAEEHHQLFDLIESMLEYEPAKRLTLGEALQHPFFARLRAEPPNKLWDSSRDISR
Plk1(h), sequence (P53350 whole entry): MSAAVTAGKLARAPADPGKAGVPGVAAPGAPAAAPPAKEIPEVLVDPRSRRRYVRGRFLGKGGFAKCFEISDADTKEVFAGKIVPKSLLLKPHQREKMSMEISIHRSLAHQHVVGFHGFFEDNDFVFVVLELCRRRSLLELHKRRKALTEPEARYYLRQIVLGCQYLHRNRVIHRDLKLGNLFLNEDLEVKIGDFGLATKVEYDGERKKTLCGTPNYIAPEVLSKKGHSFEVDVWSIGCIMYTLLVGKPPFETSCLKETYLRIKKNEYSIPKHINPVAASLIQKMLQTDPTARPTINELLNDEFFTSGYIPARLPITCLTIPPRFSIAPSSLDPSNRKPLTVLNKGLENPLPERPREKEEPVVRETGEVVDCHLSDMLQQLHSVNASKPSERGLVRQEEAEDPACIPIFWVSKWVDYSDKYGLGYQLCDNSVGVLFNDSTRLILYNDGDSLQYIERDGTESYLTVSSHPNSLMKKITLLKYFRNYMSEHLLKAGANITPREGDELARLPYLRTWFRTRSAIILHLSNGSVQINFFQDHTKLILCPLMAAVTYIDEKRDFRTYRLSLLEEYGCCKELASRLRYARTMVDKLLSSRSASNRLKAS
FGFR2(N549H)(h), sequence (P21802 22-821 N549H): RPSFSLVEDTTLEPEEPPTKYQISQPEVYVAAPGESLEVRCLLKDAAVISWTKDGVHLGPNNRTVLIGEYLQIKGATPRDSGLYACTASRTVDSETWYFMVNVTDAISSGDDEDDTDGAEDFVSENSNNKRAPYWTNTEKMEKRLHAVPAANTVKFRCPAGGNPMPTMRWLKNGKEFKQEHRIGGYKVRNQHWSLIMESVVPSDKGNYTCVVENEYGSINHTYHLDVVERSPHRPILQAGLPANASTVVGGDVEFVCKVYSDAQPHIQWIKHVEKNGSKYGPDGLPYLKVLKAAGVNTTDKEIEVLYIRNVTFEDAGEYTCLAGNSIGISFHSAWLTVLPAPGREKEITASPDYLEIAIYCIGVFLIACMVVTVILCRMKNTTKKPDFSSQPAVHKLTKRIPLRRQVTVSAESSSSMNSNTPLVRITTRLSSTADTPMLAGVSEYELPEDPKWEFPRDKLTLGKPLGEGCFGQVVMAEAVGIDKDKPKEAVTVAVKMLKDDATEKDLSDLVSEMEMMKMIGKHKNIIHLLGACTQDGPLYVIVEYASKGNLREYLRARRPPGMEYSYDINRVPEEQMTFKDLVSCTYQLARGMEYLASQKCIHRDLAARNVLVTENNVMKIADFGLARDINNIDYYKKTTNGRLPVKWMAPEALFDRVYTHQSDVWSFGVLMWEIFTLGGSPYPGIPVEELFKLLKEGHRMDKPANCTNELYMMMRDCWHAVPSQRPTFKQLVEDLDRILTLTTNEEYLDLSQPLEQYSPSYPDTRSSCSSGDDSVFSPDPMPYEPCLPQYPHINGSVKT
CK1γ2(h), sequence (P78368 whole entry): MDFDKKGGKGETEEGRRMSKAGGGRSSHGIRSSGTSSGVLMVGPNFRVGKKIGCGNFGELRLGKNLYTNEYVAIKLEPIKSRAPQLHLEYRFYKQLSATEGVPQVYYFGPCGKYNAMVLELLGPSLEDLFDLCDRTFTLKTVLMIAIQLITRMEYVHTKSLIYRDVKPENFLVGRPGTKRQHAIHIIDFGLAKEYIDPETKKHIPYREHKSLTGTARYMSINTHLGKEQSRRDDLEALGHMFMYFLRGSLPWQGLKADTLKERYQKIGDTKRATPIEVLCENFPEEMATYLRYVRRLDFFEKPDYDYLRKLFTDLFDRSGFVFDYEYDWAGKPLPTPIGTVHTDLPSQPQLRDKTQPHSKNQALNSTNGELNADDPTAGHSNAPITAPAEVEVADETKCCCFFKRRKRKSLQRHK

With FAKLAARLYRKALARQLGVAA [MMI-0300] the “% activity” value (CK1γ2(h)) was 123%.
With “HRRIKAWLKKIKALARQLGVAA (Mammal) [MMI-0500]” the “% activity” value (c-RAF(h)) was 19%.
KAFAKLAARLYRKALARQLGVAA [MMI-0400] was tested, and the “% activity” value (PAK6(h)) was 100%.
YARAAARQARAKALARQLGVAA [MMI-0100] was tested, and the “% activity” value (FGFR2(N549H)(h)) was 95%, the “collagen levels in the lung (Masson's blue trichrome), dose-response” value [1] was “a decrease in collagen levels” and the “collagen accumulation in the lungs (Masson's Trichrome staining)” value ([1]; intraperitoneally) was “reduced collagen accumulation”. The “development of fibrotic loci formation (H&E staining)” value ([1]; intraperitoneally) was “significantly reduced”, the “total collagen deposition (from hydroxyproline) vs bleomycin control” value ([1]; nebulized) was “significantly decreased” and the “total collagen deposition (from hydroxyproline) vs bleomycin control” value ([1]; systemic (IP)) was “significantly decreased”. For the same sequence, the “collagen accumulation in the lungs (Masson's Trichrome staining)” value ([1]; via nebulization) was “reduced collagen accumulation”, the “development of fibrotic loci formation (H&E staining)” value ([1]; via nebulization) was “significantly reduced” and the “phospho-Thr^334-MAPKAPK2 staining” value ([2]; intraperitoneal 50 μg/kg daily) was “decreased”. The “phospho-Thr^334-MAPKAPK2 staining” value ([2]; nebulized 50 μg/kg daily) was “decreased”, the “plasma level of TNF-α” value (TNF-α; intraperitoneal) was “significantly reduced” and the “plasma level of TNF-α” value (TNF-α; nebulized) was “significantly reduced”. For the same sequence, the “level of α-SMA in lungs vs untreated bleomycin-injured lungs” value [3] was “significantly attenuated”, the “protein level of α-smooth muscle actin (α-SMA)” value [4] was “decreases” and the “protein level of fibronectin” value [5] was “decreases”. The “invasive capacity of IPF fibroblasts” value [6] was “able to inhibit” and the HA production [7] was “reduced”.
With “YARAAARQARAKALNRQLGVA (Mammal) [MMI-0200]” the “% activity” value (CK1γ1(h)) was 98%, the “% activity” value (CLK2(h)) was 97% and the “% activity” value (Plk1(h)) was 128%. For the same sequence, the “collagen levels in the lung (Masson's blue trichrome), dose-response” value [1] was “did not reduce, but rather increased”, the “protein level of α-smooth muscle actin (α-SMA)” value [4] was “no changes” and the “protein level of fibronectin” value [5] was “no changes”.
